Data as given in patent publication US20110313156A1 (BOEHRINGER INGELHEIM INTERNATIONAL GMBH, priority 2008, published 2011).

biological target: T1, His6-PDK1 (aa 52-556) (Homo sapiens, UniProt O15530); experiment: PDK1 kinase assay III (with Tween 20); assay type: biochemical; conditions: compound at 10 μM; PDK1 kinase assay III (values without asterisk); read-out: % CTL (residual activity of the enzyme relative to DMSO control)
T1 construct: 15 μL His6-PDK1 (aa 52-556) 3.33 ng/well); host or cells: baculovirus-infected insect cells
T1 sequence (O15530 52-556): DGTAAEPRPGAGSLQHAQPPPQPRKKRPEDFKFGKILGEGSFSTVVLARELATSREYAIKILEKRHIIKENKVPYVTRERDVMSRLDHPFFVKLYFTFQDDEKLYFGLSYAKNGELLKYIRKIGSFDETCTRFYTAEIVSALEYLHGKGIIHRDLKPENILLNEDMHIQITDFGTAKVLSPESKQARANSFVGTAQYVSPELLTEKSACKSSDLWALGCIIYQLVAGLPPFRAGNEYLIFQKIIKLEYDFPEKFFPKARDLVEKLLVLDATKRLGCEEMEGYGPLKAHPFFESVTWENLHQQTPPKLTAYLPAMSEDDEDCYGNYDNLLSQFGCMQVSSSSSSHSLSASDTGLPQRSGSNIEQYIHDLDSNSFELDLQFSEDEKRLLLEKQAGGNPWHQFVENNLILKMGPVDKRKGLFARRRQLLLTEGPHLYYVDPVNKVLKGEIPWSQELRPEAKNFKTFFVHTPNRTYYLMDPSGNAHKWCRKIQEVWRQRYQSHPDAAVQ
Experimental: Purified enzyme may be obtained for example from the University of Dundee, Scotland.
Another PDK1 assay was developed which by comparison with PDK1 assay 1 additionally contains Tween 20:
The final concentration of Tween 20 is 0.005%.
The reaction is started by adding the ATP solution and the mixture is incubated for 90 min at ambient temperature; at the start of the reaction the dishes are shaken gently. The reaction is stopped by the addition of 50 μL/well of 500 mM phosphoric acid (H3PO4) and incubated for about 20 min at ambient temperature. […] The measured data are evaluated using Graphpad Prism software.
The % CTL values indicate the residual activity of the enzyme after the addition of the inhibitory compound in the solvent DMSO in relation to the enzyme activity in the solvent DMSO without the addition of a compound (control). The majority of the values were determined using the PDK1 kinase assay III described hereinbefore. The values marked with an asterisk (* or**) were determined using the PDK1 kinase assay II described hereinbefore (one asterisk→incubation for 24 h; two asterisks→incubation for 5 min)

remaining activity at 10 µM [%] | SMILES
61.8 | COc1cc(C(=O)NC2CCN(C)CC2)ccc1Nc1ncc2cc(C#CCNC(=O)c3c(C)n(C)n(Cc4ccc(F)c(F)c4)c3=O)ccc2n1
13.3 | CN(C)Cc1ccc(Nc2ncc3cc(C#CCNC(=O)c4ccnn(Cc5ccc(F)c(F)c5)c4=O)ccc3n2)cc1
9.8 | Cc1c(C(=O)NCC#Cc2cc(OCCN)c3nc(Nc4ccccc4)ncc3c2)c(=O)n(Cc2ccc(F)c(F)c2)n1C
13.7 | NCCOc1cc(C#CCNC(=O)c2cncn(Cc3ccc(F)c(F)c3)c2=O)cc2cnc(Nc3ccccc3)nc12
19.5 | Cc1c(C(=O)NC/C=C/c2cc(OCCN)c3nc(Nc4ccccc4)ncc3c2)c(=O)n(Cc2ccc(F)c(F)c2)n1C
13 | Cc1c(C(=O)NC/C=C/c2cc(OCCN)c3nc(Nc4ccc(N5CCOCC5)cc4)ncc3c2)c(=O)n(Cc2ccc(F)c(F)c2)n1C
18.3 | NCCOc1cc(C#CCNC(=O)c2cncn(Cc3ccc(F)c(F)c3)c2=O)cc2cnc(Nc3ccc(N4CCOCC4)cc3)nc12
13.8 | Cc1c(C(=O)NCC#Cc2cc(OCCN)c3nc(Nc4ccc(N5CCOCC5)cc4)ncc3c2)c(=O)n(Cc2ccc(F)c(F)c2)n1C
10.1 | NCCOc1cc(/C=C/CNC(=O)c2cncn(Cc3ccc(F)c(F)c3)c2=O)cc2cnc(Nc3ccc(N4CCOCC4)cc3)nc12
12.3 | O=C(NC/C=C/c1cc(OC2CCNCC2)c2nc(Nc3ccc(N4CCOCC4)cc3)ncc2c1)c1cncn(Cc2ccc(F)c(F)c2)c1=O
9.4 | O=C(NCC#Cc1cc(OC2CCNCC2)c2nc(Nc3ccc(N4CCOCC4)cc3)ncc2c1)c1cncn(Cc2ccc(F)c(F)c2)c1=O
12.3 | Cc1c(C(=O)NCC#Cc2cc(OC3CCNCC3)c3nc(Nc4ccc(N5CCOCC5)cc4)ncc3c2)c(=O)n(Cc2ccc(F)c(F)c2)n1C
12.5 | Cc1c(C(=O)NC/C=C/c2cc(OCCCN)c3nc(Nc4ccc(N5CCOCC5)cc4)ncc3c2)c(=O)n(Cc2ccc(F)c(F)c2)n1C
10.3 | Cc1c(C(=O)NC/C=C/c2cc(OC3CCNC3)c3nc(Nc4ccc(N5CCOCC5)cc4)ncc3c2)c(=O)n(Cc2ccc(F)c(F)c2)n1C (stereo not drawn)
19.3 | CNC(=O)c1cccc(Nc2ncc3cc(C#CCNC(=O)c4c(C)n(C)n(Cc5ccc(F)c(F)c5)c4=O)ccc3n2)c1
18.1 | O=C1Nc2cc(/C=C/CNC(=O)c3cncn(Cc4ccc(F)c(F)c4)c3=O)ccc2/C1=C/c1ccc[nH]1 [I-1, 1-(3,4-difluorobenzyl)-6-oxo-N-{(2E)-3-[(3Z)-2-oxo-3-(1H-pyrrol-2-ylmethylidene)-2,3-dihydro-1H-indol-6-yl]prop-2-en-1-yl}-1,6-dihydropyrimidine-5-carboxamide]
12.2 | O=C1Nc2cc(/C=C/CNC(=O)c3cncn(Cc4ccc(F)c(F)c4)c3=O)ccc2/C1=C/c1cnc[nH]1 [I-2, 1-(3,4-difluorobenzyl)-N-{(2E)-3-[(3Z)-3-(1H-imidazol-5-ylmethylidene)-2-oxo-2,3-dihydro-1H-indol-6-yl]prop-2-en-1-yl}-6-oxo-1,6-dihydropyrimidine-5-carboxamide]
16.4 | Cc1nc[nH]c1/C=C1\C(=O)Nc2cc(/C=C/CNC(=O)c3cncn(Cc4ccc(F)c(F)c4)c3=O)ccc21 [I-4, 1-(3,4-difluorobenzyl)-N-[(2E)-3-{(3Z)-3-[(5-methyl-1H-imidazol-4-yl)methylidene]-2-oxo-2,3-dihydro-1H-indol-6-yl]prop-2-en-1-yl}-6-oxo-1,6-dihydropyrimidine-5-carboxamide]
17.5 | O=C1Nc2cc(/C=C/CNC(=O)c3ccnn(Cc4ccc(F)c(F)c4)c3=O)ccc2/C1=C/c1cnc[nH]1 [I-6, 2-(3,4-difluorobenzyl)-N-{(2E)-3-[(3Z)-3-(1H-imidazol-5-ylmethylidene)-2-oxo-2,3-dihydro-1H-indol-6-yl]prop-2-en-1-yl}-3-oxo-2,3-dihydropyridazine-4-carboxamide]
25.7 | O=C1Nc2cc(/C=C/CNC(=O)C3CCCN(Cc4ccc(F)c(F)c4)C3=O)ccc2/C1=C/c1cnc[nH]1 (stereo not drawn) [I-9, 1-(3,4-difluorobenzyl)-N-{(2E)-3-[(3Z)-3-(1H-imidazol-5-ylmethylidene)-2-oxo-2,3-dihydro-1H-indol-6-yl]prop-2-en-1-yl}-2-oxopiperidine-3-carboxamide]
36.1 | O=C1Nc2cc(/C=C/CNC(=O)C3CCCN(Cc4ccc(F)c(F)c4)C3=O)ccc2/C1=C/c1ccc[nH]1 (stereo not drawn) [I-10, 1-(3,4-difluorobenzyl)-2-oxo-N-{(2E)-3-[(3Z)-2-oxo-3-(1H-pyrrol-2-ylmethylidene)-2,3-dihydro-1H-indol-6-yl]prop-2-en-1-yl}piperidine-3-carboxamide]
21.7 | O=C1Nc2cc(/C=C/CNC(=O)C3CCN(Cc4ccc(F)c(F)c4)C3=O)ccc2/C1=C/c1cnc[nH]1 (stereo not drawn) [I-11, 1-(3,4-difluorobenzyl)-N-{(2E)-3-[(3Z)-3-(1H-imidazol-5-ylmethylidene)-2-oxo-2,3-dihydro-1H-indol-6-yl]prop-2-en-1-yl}-2-oxopyrrolidine-3-carboxamide]
15.4 | Cc1c(C(=O)NC/C=C/c2ccc3c(c2)NC(=O)/C3=C\c2ccc[nH]2)c(=O)n(Cc2ccc(F)c(F)c2)n1C [I-16, 2-(3,4-difluorobenzyl)-1,5-dimethyl-3-oxo-N-{(2E)-3-[(3Z)-2-oxo-3-(1H-pyrrol-2-ylmethylidene)-2,3-dihydro-1H-indol-6-yl]prop-2-en-1-yl}-2,3-dihydro-1H-pyrazole-4-carboxamide]
14.3 | Cc1c(C(=O)NC/C=C/c2ccc3c(c2)NC(=O)/C3=C\c2cnc[nH]2)c(=O)n(Cc2ccc(F)c(F)c2)n1C [I-17, 2-(3,4-difluorobenzyl)-N-{(2E)-3-[(3Z)-3-(1H-imidazol-5-ylmethylidene)-2-oxo-2,3-dihydro-1H-indol-6-yl]prop-2-en-1-yl}-1,5-dimethyl-3-oxo-2,3-dihydro-1H-pyrazole-4-carboxamide]
36.9 | O=C1Nc2cc(/C=C/CNC(=O)c3cccc(Nc4ccc(F)c(F)c4)n3)ccc2/C1=C/c1ccc[nH]1 [I-19, 6-[(3,4-difluorophenyl)amino]-N-{(2E)-3-[(3Z)-2-oxo-3-(1H-pyrrol-2-ylmethylidene)-2,3-dihydro-1H-indol-6-yl]prop-2-en-1-yl}pyridine-2-carboxamide]
42.7 | O=C1Nc2cc(/C=C/CNC(=O)c3cccc(Nc4ccc(F)c(F)c4)n3)ccc2/C1=C/c1cnc[nH]1 [I-20, 6-[(3,4-difluorophenyl)amino]-N-{(2E)-3-[(3Z)-3-(1H-imidazol-5-ylmethylidene)-2-oxo-2,3-dihydro-1H-indol-6-yl]prop-2-en-1-yl}pyridine-2-carboxamide]
12 | O=C1Nc2cc(/C=C/CNC(=O)c3cc(Cl)nn(Cc4ccc(F)c(F)c4)c3=O)ccc2/C1=C/c1cnc[nH]1 [I-33, 6-chloro-2-(3,4-difluorobenzyl)-N-{(2E)-3-[(3Z)-3-(1H-imidazol-5-ylmethylidene)-2-oxo-2,3-dihydro-1H-indol-6-yl]prop-2-en-1-yl}-3-oxo-2,3-dihydropyridazine-4-carboxamide]
21.4 | O=C1Nc2cc(/C=C/CNC(=O)c3cc(Cl)nn(Cc4ccc(F)c(F)c4)c3=O)ccc2/C1=C/c1ccc[nH]1 [I-34, 6-chloro-2-(3,4-difluorobenzyl)-3-oxo-N-{(2E)-3-[(3Z)-2-oxo-3-(1H-pyrrol-2-ylmethylidene)-2,3-dihydro-1H-indol-6-yl]prop-2-en-1-yl}-2,3-dihydropyridazine-4-carboxamide]
10.7 | Cc1nc(/C=C2\C(=O)Nc3cc(/C=C/CNC(=O)c4cncn(Cc5ccc(F)c(F)c5)c4=O)ccc32)c[nH]1 [I-35, 1-(3,4-difluorobenzyl)-N-[(2E)-3-{(3Z)-3-[(2-methyl-1H-imidazol-4-yl)methylidene]-2-oxo-2,3-dihydro-1H-indol-6-yl}prop-2-en-1-yl]-6-oxo-1,6-dihydropyrimidine-5-carboxamide]
25.4 | O=C1Nc2cc(/C=C/CNC(=O)c3cncn(Cc4ccc(F)c(F)c4)c3=O)ccc2/C1=C/c1c[nH]c(-c2cccnc2)n1 [I-36, 1-(3,4-difluorobenzyl)-6-oxo-N-{(2E)-3-[(3Z)-2-oxo-3-{[2-(pyridin-3-yl)-1H-imidazol-4-yl]methylidene}-2,3-dihydro-1H-indol-6-yl]prop-2-en-1-yl}-1,6-dihydropyrimidine-5-carboxamide]
